Assays:
[1] = tested on: patients with Cocaine Use Disorder (CUD); experiment: Phase 2 trial: abstinence in the last weeks of treatment (TLFB and negative urine BE); format: in vivo, human; details: self-report (TLFB) and negative urine BE; placebo 16.7%; P=0.040
Procedure: (§1) This study was conducted in patients with CUD and consisted of about a 21-day screening period followed by a 7-day baseline period, a 98-day outpatient treatment period, and an end of study visit evaluation about 14 days after the last study drug administration ([…]. A). Study treatment was taken twice daily (separated by about 12-hour intervals) with food. For patients in the mavoglurant arm [mavoglurant (free form) provided as modified release formulation (e.g. in WO2014/199316)], an uptitration regimen was performed for 14 days (50 mg b.i.d. from Days 1 to 7 and 100 mg b.i.d from Days 8 to 14) and was followed by 200 mg b.i.d for 84 days.
A subject was considered abstinent the last x weeks of treatment if they completed the 14-week treatment period and were abstinent the last x weeks (with x=1, 2, 3. . . . , 14).
A subject was considered abstinent the last x weeks of treatment if they completed the 14-week treatment period and were abstinent the last x weeks (with x=1, 2, 3. . . . , 14). […] Binary response variables based on abstinence were calculated.
This analysis was added in order to inform on abstinence rates as this is an important endpoint in Phase III CUD studies. Binary response variables based on abstinence were calculated.

[2] = Phase 2 trial: safety and adverse events; format: in vivo, human
Procedure: as §1
Data for vital signs, electrocardiogram (ECG) and clinical laboratory evaluations were summarized by treatment and visit/time. Mavoglurant plasma concentrations were recorded at pre-dose and 2 hour (±1 hour) sampling window after the morning dose and summary statistics for concentrations were provided for plasma.
Data for vital signs (BP, pulse rate, body temperature), ECGs, and clinical laboratory evaluations were listed by treatment, subject, visit/time; abnormalities were flagged (if ranges were available).
The number and percentage of subjects with AEs are tabulated by body system and PT with a breakdown by treatment. A subject with multiple AEs within body system was only counted once towards the total of this body system and treatment.
Patient Reported Outcome included: • 1. The TLFB cocaine: is a cocaine assessment method that obtains estimates of daily cocaine intake and has been evaluated with clinical and nonclinical populations. Using a calendar, people provide retrospective estimates of their daily cocaine use over a specified time period that can vary up to 12 months from the interview date. Several memory aids can be used to enhance recall (e.g., calendar; key dates serve as anchors for reporting cocaine use). […] The method is recommended for use when relatively precise estimates of cocaine use are necessary, especially when a complete use pre-posttreatment). Clinically, the TLFB can be used to provide feedback about one's cocaine consumption in an effort to increase a client's motivation to change. • 2. The TLFB alcohol: is a drinking assessment method that obtains estimates of daily drinking and has been evaluated with clinical and nonclinical populations. Using a calendar, people provide retrospective estimates of their daily drinking over a specified time period that can vary up to 12 months from the interview date. Several memory aids can be used to enhance recall (e.g., calendar; key dates serve as anchors for reporting drinking; standard drink conversion). […] The method is recommended for use when relatively precise estimates of drinking are necessary, especially when a complete picture of drinking days (i.e., high- and low-risk days) is needed (evaluating drinking pre/post-treatment). Clinically, the TLFB can be used to provide feedback about one's drinking in an effort to increase a client's motivation to change. Overall, the Alcohol TLFB method provides a relatively accurate portrayal of drinking, and has both clinical and research utility. • 3. The BDI-II: is instrument endorsed by the National Institute for Health and Clinical Excellence for use in primary care in measuring baseline depression severity and responsiveness to treatment. • 4. The STAI: is an assessment tool for measuring the presence and severity of current symptoms of anxiety and a generalized propensity to be anxious. There are 2 subscales within this measure. First, the State Anxiety Scale (S-Anxiety) evaluates the current state of anxiety, asking how respondents feel “right now,” using items that measure subjective feelings of apprehension, tension, nervousness, worry, and activation/arousal of the autonomic nervous system. […]

COC(=O)N1CC[C@@H]2[C@H]1CCC[C@@]2(O)C#Cc1cccc(C)c1 [mavoglurant, (-)-(3aR,4S,7aR)-4-Hydroxy-4-m-tolylethynyl-octahydro-indole-1-carboxylic acid methyl ester]
proportion of patients with cocaine abstinence in the last 3 weeks of the study [1]: 41.4%
overall AE rate vs placebo group ([2]; CUD patients, 98-day treatment): comparable
overall safety and tolerability ([2]; CUD patients, 98-day treatment): safe and well tolerated
rate of psychiatric symptoms vs placebo group ([2]; CUD patients, 98-day treatment): higher rate of psychiatric symptoms
vital signs, ECGs, clinical safety laboratory parameters ([2]; CUD patients, 98-day treatment): no significant findings
overall safety and tolerability ([2]; CUD patients, 98-day treatment, listed as Mavoglurant): safe and well-tolerated
deaths or SAEs ([2]; mavoglurant group): no deaths or SAEs

From US20240050408A1, “USE OF MGLUR5 ANTAGONISTS FOR TREATING AMPHETAMINE ADDICTION” (NOVARTIS AG, priority 2020, published 2024)
